# Test results: patent US11213542B2, “Method and agent for lowering total cholesterol levels and for improving blood lipid spectrum composition” (BIOGIX, INC., priority 2018, dated 2022)
# Where two headings read alike, the source gives them in different places. Marks after values point to notes of the source that are not given here.
# System: patients with abnormal levels of lipid spectrum
# [1] = Visit 1 (baseline), 4000 mg vitamin PP daily for 5 days
# [2] = Visit 2 (5 days of supplementation), 4000 mg vitamin PP daily
# [3] = Visit 3 (10 days after last dose), 15 days, 4000 mg vitamin PP daily for 5 days
# [4] = Visit 4 (30 days after last dose), 35 days, 4000 mg vitamin PP daily for 5 days
structure (smiles),measurement,setting,value
"O=C(O)c1cccnc1 [PP, vitamin PP]",patients dropped out due to side effects,3rd day of the trial,1 patients
same,effect on lipid spectrum (in words),"4000 mg vitamin PP daily, 5 days","quickly lowers TC and LDL, without significantly changing the rest of the lipid spectrum parameters"
same,patients dropped out due to side effects,4th day of the trial,3 patients
same,patients dropped out due to adverse effects,"PP group, 4000 mg vitamin PP daily, 5 days",12%
same,HDL (high density lipoproteins),[1],0.98 mmol/L
same,LDL (low density lipoproteins),[1],3.13 mmol/L
same,La (lipoprotein a),[1],36.75 mg/dL
same,TC (total cholesterol),[1],6.77 mmol/L
same,TG (triglycerides),[1],2.35* mmol/L
same,VLDL (very low density lipoproteins),[1],1.14 mmol/L
same,HDL (high density lipoproteins),[2],0.99 mmol/L
same,LDL (low density lipoproteins),[2],2.58 mmol/L
same,La (lipoprotein a),[2],38.39 mg/dL
same,TC (total cholesterol),[2],5.99 mmol/L
same,TG (triglycerides),[2],2.40 mmol/L
same,VLDL (very low density lipoproteins),[2],1.11 mmol/L
same,HDL (high density lipoproteins),[3],0.95 mmol/L
same,LDL (low density lipoproteins),[3],2.97 mmol/L
same,La (lipoprotein a),[3],37.40 mg/dL
same,TC (total cholesterol),[3],6.12 mmol/L
same,TG (triglycerides),[3],2.33 mmol/L
same,VLDL (very low density lipoproteins),[3],1.15 mmol/L
same,HDL (high density lipoproteins),[4],0.99 mmol/L
same,LDL (low density lipoproteins),[4],3.18 mmol/L
same,La (lipoprotein a),[4],37.29 mg/dL
same,TC (total cholesterol),[4],6.81 mmol/L
same,TG (triglycerides),[4],2.37 mmol/L
same,VLDL (very low density lipoproteins),[4],1.16 mmol/L
same,duration of efficacy,after 5-day course of 4000 mg vitamin PP daily,≤ 10 days
same,patients dropped out due to side effects,second day of the trial,2 patients
